# Measured values taken from ChEMBL document CHEMBL3868635, “Bromomethylthioindole Inspired Carbazole Hybrids as Promising Class of Anti-MRSA Agents” (ACS Med Chem Lett, 2016).
# How the values were obtained:
# Staphylococcus aureus [1] = test: Antibacterial activity against methicillin-resistant Staphylococcus aureus ATCC 43300 incubated for overnight measured after 20 to 24 hrs by broth microdilution method; assay type: functional
# Staphylococcus aureus [2] = test: Antibacterial activity against methicillin-susceptible Staphylococcus aureus ATCC 29213 incubated for overnight measured after 20 to 24 hrs by broth microdilution method; assay type: functional
# Staphylococcus aureus [3] = test: Antibacterial activity against methicillin-resistant Staphylococcus aureus M013 incubated for overnight measured after 20 to 24 hrs by broth microdilution method; assay type: functional
# Staphylococcus aureus [4] = test: Antibacterial activity against methicillin-resistant Staphylococcus aureus Y069 incubated for overnight measured after 20 to 24 hrs by broth microdilution method; assay type: functional
# Klebsiella pneumoniae = test: Antibacterial activity against Klebsiella pneumoneae ATCC 700603 incubated for overnight measured after 20 to 24 hrs by broth microdilution method; assay type: functional
# Staphylococcus aureus [5] = test: Antibacterial activity against methicillin-resistant Staphylococcus aureus N043 incubated for overnight measured after 20 to 24 hrs by broth microdilution method; assay type: functional
# Staphylococcus aureus [6] = test: Antibacterial activity against methicillin-resistant Staphylococcus aureus L166 incubated for overnight measured after 20 to 24 hrs by broth microdilution method; assay type: functional
# Acinetobacter baumannii = test: Antibacterial activity against Acinetobacter baumannii ATCC 19606 incubated for overnight measured after 20 to 24 hrs by broth microdilution method; assay type: functional
# Pseudomonas aeruginosa = test: Antibacterial activity against Pseudomonas aeruginosa ATCC 27853 incubated for overnight measured after 20 to 24 hrs by broth microdilution method; assay type: functional
# Staphylococcus aureus [7] = test: Antibacterial activity against methicillin-susceptible Staphylococcus aureus M056 incubated for overnight measured after 20 to 24 hrs by broth microdilution method; assay type: functional
# Enterococcus faecalis [8] = test: Antibacterial activity against vancomycin-resistant Enterococcus faecalis ATCC 51299 incubated for overnight measured after 20 to 24 hrs by broth microdilution method; assay type: functional
# Staphylococcus aureus [9] = test: Antibacterial activity against methicillin-resistant Staphylococcus aureus C217 incubated for overnight measured after 20 to 24 hrs by broth microdilution method; assay type: functional
# Escherichia coli = test: Antibacterial activity against Escherichia coli ATCC 25922 incubated for overnight measured after 20 to 24 hrs by broth microdilution method; assay type: functional
# Staphylococcus aureus [10] = test: Antibacterial activity against methicillin-resistant Staphylococcus aureus 4N216 incubated for overnight measured after 20 to 24 hrs by broth microdilution method; assay type: functional
# Staphylococcus aureus [11] = test: Antibacterial activity against methicillin-resistant Staphylococcus aureus Z234 incubated for overnight measured after 20 to 24 hrs by broth microdilution method; assay type: functional
# Staphylococcus aureus [12] = test: Antibacterial activity against vancomycin-intermediate and daptomycin-nonsusceptible methicillin-resistant Staphylococcus aureus Z172 incubated for overnight measured after 20 to 24 hrs by broth microdilution method; assay type: functional
# Enterococcus faecalis [13] = test: Potency index, ratio of […] MIC to compound MIC against vanomycin-resistant Enterococcus faecalis ATCC 51299
# Mus musculus [14] = test: Acute toxicity in ICR mouse assessed as increase in body weight at 100 mg/kg, iv measured daily for 2 weeks; assay type: organism-based; details: in vivo, 336 h
# Mus musculus [15] = test: Acute toxicity in ICR mouse assessed as increase in survival at 100 mg/kg, iv measured after 2 weeks; assay type: organism-based; details: in vivo, 336 h
# [16] = AUC (0 to 24 hrs) in ICR mouse plasma at 10 mg/kg, iv by LC-MS/MS analysis; assay type: ADME, organism-based; parameters: dose 10 mg/kg, time < 24 hr, route intravenous
# [17] = Clearance in ICR mouse plasma at 10 mg/kg, iv by LC-MS/MS analysis; assay type: ADME, organism-based
# [18] = Half life in ICR mouse plasma at 10 mg/kg, iv by LC-MS/MS analysis; assay type: ADME, organism-based
# [19] = Cmax in ICR mouse plasma at 10 mg/kg, iv measured after 20 mins by LC-MS/MS analysis; assay type: ADME, organism-based; parameters: dose 10 mg/kg, route intravenous
# Staphylococcus aureus [20] = test: Antibacterial activity against methicillin-resistant Staphylococcus aureus 4N216 infected in ICR mouse assessed as mouse survival rate at 20 mg/kg, iv administered as single dose 30 mins post-infection measured day 7 post infection relative to control; assay type: functional; details: 4N216, iv
# [21] = Volume of distribution at steady state in ICR mouse plasma at 10 mg/kg, iv by LC-MS/MS analysis; assay type: ADME, organism-based; details: read-out: Vdss
# Staphylococcus aureus [22] = test: Potency index, ratio of vanomycin MIC to compound MIC against vancomycin-intermediate and daptomycin-nonsusceptible methicillin-resistant Staphylococcus aureus Z172; assay type: functional
smiles,measurement,setting,value
OC(CNCc1c[nH]c2cc(F)ccc12)Cn1c2ccc(Br)cc2c2cc(Br)ccc21 (stereo not given),MIC,Staphylococcus aureus [1],2 µg/mL
same,MIC,Staphylococcus aureus [2],2 µg/mL
Oc1ccccc1CCNCC(O)Cn1c2ccc(Br)cc2c2cc(Br)ccc21 (stereo not given),MIC,Staphylococcus aureus [1],1 to 2 µg/mL
same,MIC,Staphylococcus aureus [2],1 to 2 µg/mL
O[C@H](CNCCc1c[nH]c2ccc(Cl)cc12)Cn1c2ccc(Br)cc2c2cc(Br)ccc21,MIC,Staphylococcus aureus [1],1 µg/mL
same,MIC,Staphylococcus aureus [2],1 µg/mL
OC(CNCCc1c[nH]cn1)Cn1c2ccc(Br)cc2c2cc(Br)ccc21 (stereo not given),MIC,Staphylococcus aureus [1],4 µg/mL
same,MIC,Staphylococcus aureus [2],4 µg/mL
OC(CNCCc1c[nH]c2ccc(Cl)cc12)Cn1c2ccc(Br)cc2c2cc(Br)ccc21 (racemic),MIC,Staphylococcus aureus [3],1 µg/mL
same,MIC,Staphylococcus aureus [4],1 µg/mL
same,MIC,Klebsiella pneumoniae,> 64 µg/mL
same,MIC,Staphylococcus aureus [5],1 µg/mL
same,MIC,Staphylococcus aureus [6],1 µg/mL
same,MIC,Staphylococcus aureus [1],1 µg/mL
same,MIC,Staphylococcus aureus [2],1 µg/mL
same,MIC,Acinetobacter baumannii,> 64 µg/mL
same,MIC,Pseudomonas aeruginosa,> 64 µg/mL
same,MIC,Staphylococcus aureus [7],1 µg/mL
same,MIC,Enterococcus faecalis [8],1 µg/mL
same,MIC,Staphylococcus aureus [9],1 µg/mL
same,MIC,Escherichia coli,> 64 µg/mL
same,MIC,Staphylococcus aureus [10],1 µg/mL
same,MIC,Staphylococcus aureus [11],1 µg/mL
same,MIC,Staphylococcus aureus [12],2 µg/mL
same,Ratio,Enterococcus faecalis [13],4 - 18
OC(CNCCc1c[nH]c2cc(F)ccc12)Cn1c2ccc(Br)cc2c2cc(Br)ccc21 (stereo not given),MIC,Staphylococcus aureus [3],1 µg/mL
same,MIC,Staphylococcus aureus [4],1 µg/mL
same,MIC,Klebsiella pneumoniae,> 64 µg/mL
same,MIC,Staphylococcus aureus [5],1 µg/mL
same,MIC,Staphylococcus aureus [6],1 µg/mL
same,Activity,Mus musculus [14],Non-Toxic
same,MIC,Staphylococcus aureus [1],1 µg/mL
same,MIC,Staphylococcus aureus [2],1 µg/mL
same,MIC,Acinetobacter baumannii,16 µg/mL
same,MIC,Pseudomonas aeruginosa,> 64 µg/mL
same,MIC,Staphylococcus aureus [7],1 to 2 µg/mL
same,MIC,Enterococcus faecalis [8],2 µg/mL
same,MIC,Staphylococcus aureus [9],1 µg/mL
same,MIC,Escherichia coli,8 to 16 µg/mL
same,MIC,Staphylococcus aureus [10],1 µg/mL
same,MIC,Staphylococcus aureus [11],1 µg/mL
same,MIC,Staphylococcus aureus [12],2 µg/mL
same,Activity,Mus musculus [15],Non-Toxic
O[C@@H](CNCCc1c[nH]c2ccc(Cl)cc12)Cn1c2ccc(Br)cc2c2cc(Br)ccc21,MIC,Staphylococcus aureus [1],1 µg/mL
same,MIC,Staphylococcus aureus [2],1 µg/mL
OC(CNCCc1c[nH]c2cc(F)ccc12)Cn1c2ccccc2c2ccccc21 (stereo not given),MIC,Staphylococcus aureus [1],4 µg/mL
same,MIC,Staphylococcus aureus [2],4 µg/mL
CN[C@H](CC(C)C)C(=O)N[C@H]1C(=O)N[C@@H](CC(N)=O)C(=O)N[C@H]2C(=O)N[C@H]3C(=O)N[C@H](C(=O)N[C@H](C(=O)O)c4cc(O)cc(O)c4-c4cc3ccc4O)[C@H](O)c3ccc(c(Cl)c3)Oc3cc2cc(c3O[C@@H]2O[C@H](CO)[C@@H](O)[C@H](O)[C@H]2O[C@H]2C[C@](C)(N)[C@H](O)[C@H](C)O2)Oc2ccc(cc2Cl)[C@H]1O [VANCOMYCIN],MIC,Staphylococcus aureus [3],≤ 0.5 µg/mL
same,AUC(0-t) at 24 h,[16],13700 ng·h/mL
same,clearance,[17],11.7 mL/min/kg
same,half-life,[18],0.6 h
same,Cmax,[19],58500 ng/mL
same,MIC,Enterococcus faecalis [8],8 to 16 µg/mL
same,survival at 20 mg/kg,Staphylococcus aureus [20],100%
same,Vd,[21],0.3 L/kg
OC(Cn1cncn1)Cn1c2ccc(Br)cc2c2cc(Br)ccc21 (stereo not given),MIC,Staphylococcus aureus [1],16 µg/mL
same,MIC,Staphylococcus aureus [2],16 µg/mL
OC(CNCCc1cccc(Cl)c1)Cn1c2ccc(Cl)cc2c2cc(Cl)ccc21 (stereo not given),MIC,Staphylococcus aureus [3],4 µg/mL
same,MIC,Staphylococcus aureus [4],4 µg/mL
same,MIC,Klebsiella pneumoniae,> 64 µg/mL
same,MIC,Staphylococcus aureus [5],4 µg/mL
same,MIC,Staphylococcus aureus [6],4 µg/mL
same,MIC,Acinetobacter baumannii,> 64 µg/mL
same,MIC,Pseudomonas aeruginosa,> 64 µg/mL
same,MIC,Staphylococcus aureus [7],1 µg/mL
same,MIC,Enterococcus faecalis [8],2 µg/mL
same,MIC,Staphylococcus aureus [9],4 µg/mL
same,MIC,Escherichia coli,> 64 µg/mL
same,MIC,Staphylococcus aureus [10],0.5 to 1 µg/mL
same,MIC,Staphylococcus aureus [11],4 µg/mL
same,MIC,Staphylococcus aureus [12],4 µg/mL
OC(CNCCc1cccc(F)c1)Cn1c2ccc(Br)cc2c2cc(Br)ccc21 (stereo not given),MIC,Staphylococcus aureus [1],1 to 2 µg/mL
same,MIC,Staphylococcus aureus [2],1 to 2 µg/mL
Oc1ccc(CCNCC(O)Cn2c3ccc(Br)cc3c3cc(Br)ccc32)cc1O (stereo not given),MIC,Staphylococcus aureus [1],16 µg/mL
same,MIC,Staphylococcus aureus [2],16 µg/mL
OC(CNCCc1c[nH]c2cc(F)ccc12)Cn1c2ccc(Cl)cc2c2cc(Cl)ccc21 (racemic),MIC,Staphylococcus aureus [3],1 µg/mL
same,MIC,Staphylococcus aureus [4],1 µg/mL
same,AUC(0-t) at 24 h,[16],20500 ng·h/mL
same,MIC,Klebsiella pneumoniae,> 64 µg/mL
same,MIC,Staphylococcus aureus [5],1 µg/mL
same,MIC,Staphylococcus aureus [6],1 µg/mL
same,Activity,Mus musculus [14],Non-Toxic
same,MIC,Staphylococcus aureus [1],0.5 to 1 µg/mL
same,MIC,Staphylococcus aureus [2],0.5 to 1 µg/mL
same,MIC,Acinetobacter baumannii,8 µg/mL
same,clearance,[17],6.9 mL/min/kg
same,half-life,[18],10.3 h
same,MIC,Pseudomonas aeruginosa,> 64 µg/mL
same,MIC,Staphylococcus aureus [7],1 µg/mL
same,Cmax,[19],29700 ng/mL
same,MIC,Enterococcus faecalis [8],1 µg/mL
same,MIC,Staphylococcus aureus [9],1 µg/mL
same,MIC,Escherichia coli,4 µg/mL
same,MIC,Staphylococcus aureus [10],0.5 µg/mL
same,MIC,Staphylococcus aureus [11],1 µg/mL
same,MIC,Staphylococcus aureus [12],1 µg/mL
same,Activity,Mus musculus [15],Non-Toxic
same,Ratio,Enterococcus faecalis [13],4 - 18
same,Ratio,Staphylococcus aureus [22],4 - 16
same,survival at 20 mg/kg,Staphylococcus aureus [20],75%
same,Vd,[21],4.9 L/kg
O[C@H](CNCCc1c[nH]c2cc(F)ccc12)Cn1c2ccc(Cl)cc2c2cc(Cl)ccc21,MIC,Staphylococcus aureus [1],0.5 to 1 µg/mL
same,MIC,Staphylococcus aureus [2],0.5 to 1 µg/mL
O[C@@H](CNCCc1c[nH]c2cc(F)ccc12)Cn1c2ccc(Cl)cc2c2cc(Cl)ccc21,MIC,Staphylococcus aureus [1],0.5 to 1 µg/mL
same,MIC,Staphylococcus aureus [2],0.5 to 1 µg/mL
OC(CNCCc1cccc(F)c1)Cn1ccc2cc(Br)ccc21 (stereo not given),MIC,Staphylococcus aureus [1],8 µg/mL
same,MIC,Staphylococcus aureus [2],16 to 32 µg/mL
OC(CNc1cc(Cl)nc(Cl)n1)Cn1c2ccc(Br)cc2c2cc(Br)ccc21 (stereo not given),MIC,Staphylococcus aureus [1],> 32 µg/mL
same,MIC,Staphylococcus aureus [2],> 32 µg/mL
OC(CNc1nc(Cl)nc2ccccc12)Cn1c2ccc(Br)cc2c2cc(Br)ccc21 (stereo not given),MIC,Staphylococcus aureus [1],> 32 µg/mL
same,MIC,Staphylococcus aureus [2],> 32 µg/mL
OC(CNc1ccc(C(F)(F)F)cc1)Cn1c2ccc(Cl)cc2c2cc(Cl)ccc21 (stereo not given),MIC,Staphylococcus aureus [3],1 µg/mL
same,MIC,Staphylococcus aureus [4],1 µg/mL
same,MIC,Klebsiella pneumoniae,> 64 µg/mL
same,MIC,Staphylococcus aureus [5],1 µg/mL
same,MIC,Staphylococcus aureus [6],1 µg/mL
same,MIC,Acinetobacter baumannii,> 64 µg/mL
same,MIC,Pseudomonas aeruginosa,> 64 µg/mL
same,MIC,Staphylococcus aureus [7],1 µg/mL
same,MIC,Enterococcus faecalis [8],2 µg/mL
same,MIC,Staphylococcus aureus [9],1 µg/mL
same,MIC,Escherichia coli,> 64 µg/mL
same,MIC,Staphylococcus aureus [10],1 µg/mL
same,MIC,Staphylococcus aureus [11],1 µg/mL
same,MIC,Staphylococcus aureus [12],1 µg/mL
